Measurements reported in ChEMBL document CHEMBL3045969, “Synthesis and evaluation of some new 4-aminopyridine derivatives as a potent antiamnesic and cognition enhancing drugs” (Med Chem Res, 2012).

How the values were obtained:
Rattus norvegicus [1] = assay: Antiamnesic activity in scopolamine-induced amnesia Charles Foster albino Rattus norvegicus (rat) model assessed as transfer latency time at 10 mg/kg, po qd for 8 days measured 1 hr post last dose on day 8 by elevated plus maze test; assay type: functional
Rattus norvegicus [2] = assay: Cognition enhancing activity in Charles Foster albino Rattus norvegicus (rat) assessed as transfer latency time at 10 mg/kg, po qd for 7 days measured 1 hr post last dose on day 7 by elevated plus maze test; assay type: functional
Rattus norvegicus [3] = assay: Cognition enhancing activity in Charles Foster albino Rattus norvegicus (rat) assessed as transfer latency time at 5 mg/kg, po qd for 7 days measured 1 hr post last dose on day 7 by elevated plus maze test; assay type: functional
Rattus norvegicus [4] = assay: Antiamnesic activity in po dosed scopolamine-induced amnesia Charles Foster albino Rattus norvegicus (rat) model assessed as transfer latency time administered once daily for 8 days measured 1 hr post last dose on day 8 by elevated plus maze test; assay type: functional, organism-based
Rattus norvegicus [5] = assay: (§1) Inhibition of AChE in Charles Foster albino Rattus norvegicus (rat) assessed as hydrolysis of acetylthiocholine iodide per mg of protein in prefrontal cortex at 5 mg/kg, po qd for 7 days measured 1 hr post last dose on day 7 by spectrophotometry (reference value: […]/mg protein); assay type: functional
Rattus norvegicus [6] = assay: (§2) Inhibition of AChE in Charles Foster albino Rattus norvegicus (rat) assessed as hydrolysis of acetylthiocholine iodide per mg of protein in hypothalamus at 10 mg/kg, po qd for 7 days measured 1 hr post last dose on day 7 by spectrophotometry (reference value: […]/mg protein); assay type: functional
Rattus norvegicus [7] = assay: as §1, with “AChE in po dosed Charles Foster” for “AChE in Charles Foster”, “prefrontal cortex administered qd for” for “prefrontal cortex at 5 mg/kg, po qd for”; assay type: functional, organism-based
Rattus norvegicus [8] = assay: Acute toxicity in Charles Foster albino Rattus norvegicus (rat) assessed as mortality at >35 mg/kg of body weight, po measured up to 24 hr; assay type: organism-based; conditions: in vivo
Rattus norvegicus [9] = assay: Antiamnesic activity in scopolamine-induced amnesia Charles Foster albino Rattus norvegicus (rat) model assessed as transfer latency time at 5 mg/kg, po qd for 8 days measured 1 hr post last dose on day 8 by elevated plus maze test; assay type: functional
Rattus norvegicus [10] = assay: Cognition enhancing activity in Charles Foster albino Rattus norvegicus (rat) assessed as transfer latency time at 10 mg/kg, po qd for 8 days measured 1 hr post last dose on day 8 by elevated plus maze test; assay type: functional
Rattus norvegicus [11] = assay: Cognition enhancing activity in Charles Foster albino Rattus norvegicus (rat) assessed as transfer latency time at 5 mg/kg, po qd for 8 days measured 1 hr post last dose on day 8 by elevated plus maze test; assay type: functional
Rattus norvegicus [12] = assay: Inhibition of AChE in po dosed Charles Foster albino Rattus norvegicus (rat) assessed as hydrolysis of acetylthiocholine iodide per mg of protein in hippocampus administered po qd for 7 days measured 1 hr post last dose on day 7 by spectrophotometry (reference value: […]/mg protein); assay type: functional, organism-based
Rattus norvegicus [13] = assay: Inhibition of AChE in Charles Foster albino Rattus norvegicus (rat) assessed as hydrolysis of acetylthiocholine iodide per mg of protein in prefrontal cortex at 10 mg/kg, po qd for 7 days measured 1 hr post last dose on day 7 by spectrophotometry (reference value: […]/mg protein); assay type: functional
Rattus norvegicus [14] = assay: as §2, with “AChE in po dosed Charles Foster” for “AChE in Charles Foster”, “in hypothalamus administered qd for” for “in hypothalamus at 10 mg/kg, po qd for”; assay type: functional, organism-based
Rattus norvegicus [15] = assay: Antiamnesic activity in scopolamine-induced amnesia Charles Foster albino Rattus norvegicus (rat) model assessed as transfer latency time at 5 mg/kg, po qd for 7 days measured 1 hr post last dose on day 7 by elevated plus maze test; assay type: functional
Rattus norvegicus [16] = assay: Inhibition of AChE in Charles Foster albino Rattus norvegicus (rat) assessed as hydrolysis of acetylthiocholine iodide per mg of protein in hippocampus at 10 mg/kg, po qd for 7 days measured 1 hr post last dose on day 7 by spectrophotometry (reference value: […]/mg protein); assay type: functional
Rattus norvegicus [17] = assay: Inhibition of AChE in Charles Foster albino Rattus norvegicus (rat) assessed as hydrolysis of acetylthiocholine iodide per mg of protein in hypothalamus at 5 mg/kg, po qd for 7 days measured 1 hr post last dose on day 7 by spectrophotometry (reference value: […]/mg protein); assay type: functional
Rattus norvegicus [18] = assay: Inhibition of AChE in Charles Foster albino Rattus norvegicus (rat) assessed as hydrolysis of acetylthiocholine iodide per mg of protein in hippocampus at 5 mg/kg, po qd for 7 days measured 1 hr post last dose on day 7 by spectrophotometry (reference value: […]/mg protein); assay type: functional
Rattus norvegicus [19] = assay: Antiamnesic activity in scopolamine-induced amnesia Charles Foster albino Rattus norvegicus (rat) model assessed as transfer latency time at 10 mg/kg, po qd for 7 days measured 1 hr post last dose on day 7 by elevated plus maze test; assay type: functional
Rattus norvegicus [20] = assay: Cognition enhancing activity in Charles Foster albino Rattus norvegicus (rat) assessed as transfer latency time at 200 mg/kg, ip for 2 days measured 1 hr post last dose on day 2 by elevated plus maze test; assay type: functional; conditions: route intraperitoneal
Rattus norvegicus [21] = assay: Antiamnesic activity in scopolamine-induced amnesia Charles Foster albino Rattus norvegicus (rat) model assessed as transfer latency time at 200 mg/kg, ip measured after 30 min by elevated plus maze test; assay type: functional; conditions: route intraperitoneal
Rattus norvegicus [22] = assay: Cognition enhancing activity in Charles Foster albino Rattus norvegicus (rat) at 200 mg/kg, ip measured 30 min post dose by elevated plus maze test; assay type: functional; conditions: route intraperitoneal
Rattus norvegicus [23] = assay: Antiamnesic activity in scopolamine-induced amnesia Charles Foster albino Rattus norvegicus (rat) model assessed as transfer latency time at 200 mg/kg, ip ip for 2 days measured 1 hr post last dose on day 2 by elevated plus maze test; assay type: functional; conditions: route intraperitoneal

SMILES	Time (Rattus norvegicus [1]) [s]	Time (Rattus norvegicus [2]) [s]	Time (Rattus norvegicus [3]) [s]	Activity (Rattus norvegicus [4])	Activity (Rattus norvegicus [5]) [nmol/min]	Activity (Rattus norvegicus [6]) [nmol/min]	inhibition (Rattus norvegicus [7])	Activity (Rattus norvegicus [8])	Time (Rattus norvegicus [9]) [s]	Time (Rattus norvegicus [10]) [s]	Time (Rattus norvegicus [11]) [s]	inhibition (Rattus norvegicus [12])	Activity (Rattus norvegicus [13]) [nmol/min]	inhibition (Rattus norvegicus [14])	Time (Rattus norvegicus [15]) [s]	Activity (Rattus norvegicus [16]) [nmol/min]	Activity (Rattus norvegicus [17]) [nmol/min]	Activity (Rattus norvegicus [18]) [nmol/min]	Time (Rattus norvegicus [19]) [s]	also measured
C/C(=N/c1ccncc1)c1ccc(O)cc1	41.67	50.83	59.83	Dose-dependent effect	39.33	29.67	Dose-dependent effect	Non-toxic	50.67	46.83	56.17	Dose-dependent effect	33	Dose-dependent effect	53.17	36.5	35.17	40.5	47	–
Oc1ccc(/C=N\c2ccncc2)c(O)c1	43	52.5	60.33	Dose-dependent effect	41	30	Dose-dependent effect	Non-toxic	51.67	48.67	51.17	Dose-dependent effect	30.5	Dose-dependent effect	51.67	34.83	34.5	42.83	46.5	–
Oc1ccccc1/C=N\c1ccncc1	42.5	52.17	59.83	Dose-dependent effect	37.5	30.5	Dose-dependent effect	Non-toxic	50.17	42.5	50.17	Dose-dependent effect	33	Dose-dependent effect	53.5	36.83	34.33	41.83	48.17	–
COc1ccc(/C=N\c2ccncc2)cc1	43.17	52.67	57.83	Dose-dependent effect	36	30.83	Dose-dependent effect	Non-toxic	50.83	46.33	49.5	Dose-dependent effect	31	Dose-dependent effect	52	36.5	35.67	41.5	48.67	–
C(=N/c1ccncc1)/c1ccccc1	42.67	52.5	59.67	Dose-dependent effect	39	35.5	Dose-dependent effect	Non-toxic	51.5	47.17	51.83	Dose-dependent effect	33.83	Dose-dependent effect	53.83	36.83	29.33	43.83	48.83	–
COc1ccc(/C=N\c2ccncc2)cc1OC	42.5	53	58	Dose-dependent effect	36.5	30.5	Dose-dependent effect	Non-toxic	50.67	47.5	50.33	Dose-dependent effect	33.17	Dose-dependent effect	53.83	35.83	35.5	41.17	48.5	–
c1ccc(C(=Nc2ccncc2)c2ccccc2)cc1	41.17	46.83	49.17	Dose-dependent effect	37	29.67	Dose-dependent effect	Non-toxic	41.83	40.17	44	Dose-dependent effect	32.83	Dose-dependent effect	46.83	37.5	34.67	42.17	45.67	–
NC(=O)CN1CCCC1=O [PIRACETAM]	–	–	–	–	–	–	–	–	–	–	–	–	–	–	–	–	–	–	–	Time (Rattus norvegicus [20]): 45.67 s; Time (Rattus norvegicus [21]): 47 s; Time (Rattus norvegicus [22]): 49.5 s; Time (Rattus norvegicus [23]): 43.33 s
